Activity calls are given as the source filed them. The rule behind the calls is not given here.
Key:
[1] = Oral bioavailability in dog at 0.2 mg/kg; format: ADME, organism-based, Canis lupus familiaris; settings: in vivo
[2] = Toxicity in micronucleus (unknown origin) assessed as induction of clastogenesis by micronucleus assay
[3] = Toxicity against human HepG2 cells; format: cell-based
MIA PaCa-2 = assay: Antiproliferative activity against human MIAPaCa2 cells incubated for 72 hrs by [3H] thymidine incorporation assay; format: functional, cell-based
[4] = Oral bioavailability in cynomolgus monkey at 1 mg/kg; format: ADME, organism-based, Macaca fascicularis; settings: in vivo
[5] = Half life in cynomolgus monkey at 1 mg/kg, iv and 1 mg/kg, po; format: ADME, organism-based, Macaca fascicularis; settings: in vivo
[6] = Half in mouse liver microsomes; format: ADME
Salmonella typhimurium = assay: Mutagenicity in Salmonella typhimurium by Ames test; format: toxicity, organism-based; settings: salmonella enterica subsp. enterica serovar typhimurium
MDA-MB-231 = assay: Antiproliferative activity against human MDA-MB-231 cells incubated for 72 hrs by [3H] thymidine incorporation assay; format: functional, cell-based
[7] = target: Non-receptor tyrosine-protein kinase TYK2 (Homo sapiens, UniProt P29597); assay: Inhibition of recombinant TYK2 (unknown origin) by scintillation counting method
A549 = assay: Antiproliferative activity against human A549 cells incubated for 72 hrs by [3H] thymidine incorporation assay; format: functional, cell-based
[8] = Inhibition of calcium channel (unknown origin) by patch clamp assay; parameters: species or system Homo sapiens
[9] = Clearance in dog at 0.2 mg/kg, iv and 0.2 mg/kg, po; format: ADME, organism-based, Canis lupus familiaris; settings: in vivo
Homo sapiens = species on record: Homo sapiens; assay: Inhibition of sodium channel (unknown origin) at 10 uM at 1 and 4 Hz stimulation by patch clamp assay

Sequence of Non-receptor tyrosine-protein kinase TYK2 (P29597 whole entry): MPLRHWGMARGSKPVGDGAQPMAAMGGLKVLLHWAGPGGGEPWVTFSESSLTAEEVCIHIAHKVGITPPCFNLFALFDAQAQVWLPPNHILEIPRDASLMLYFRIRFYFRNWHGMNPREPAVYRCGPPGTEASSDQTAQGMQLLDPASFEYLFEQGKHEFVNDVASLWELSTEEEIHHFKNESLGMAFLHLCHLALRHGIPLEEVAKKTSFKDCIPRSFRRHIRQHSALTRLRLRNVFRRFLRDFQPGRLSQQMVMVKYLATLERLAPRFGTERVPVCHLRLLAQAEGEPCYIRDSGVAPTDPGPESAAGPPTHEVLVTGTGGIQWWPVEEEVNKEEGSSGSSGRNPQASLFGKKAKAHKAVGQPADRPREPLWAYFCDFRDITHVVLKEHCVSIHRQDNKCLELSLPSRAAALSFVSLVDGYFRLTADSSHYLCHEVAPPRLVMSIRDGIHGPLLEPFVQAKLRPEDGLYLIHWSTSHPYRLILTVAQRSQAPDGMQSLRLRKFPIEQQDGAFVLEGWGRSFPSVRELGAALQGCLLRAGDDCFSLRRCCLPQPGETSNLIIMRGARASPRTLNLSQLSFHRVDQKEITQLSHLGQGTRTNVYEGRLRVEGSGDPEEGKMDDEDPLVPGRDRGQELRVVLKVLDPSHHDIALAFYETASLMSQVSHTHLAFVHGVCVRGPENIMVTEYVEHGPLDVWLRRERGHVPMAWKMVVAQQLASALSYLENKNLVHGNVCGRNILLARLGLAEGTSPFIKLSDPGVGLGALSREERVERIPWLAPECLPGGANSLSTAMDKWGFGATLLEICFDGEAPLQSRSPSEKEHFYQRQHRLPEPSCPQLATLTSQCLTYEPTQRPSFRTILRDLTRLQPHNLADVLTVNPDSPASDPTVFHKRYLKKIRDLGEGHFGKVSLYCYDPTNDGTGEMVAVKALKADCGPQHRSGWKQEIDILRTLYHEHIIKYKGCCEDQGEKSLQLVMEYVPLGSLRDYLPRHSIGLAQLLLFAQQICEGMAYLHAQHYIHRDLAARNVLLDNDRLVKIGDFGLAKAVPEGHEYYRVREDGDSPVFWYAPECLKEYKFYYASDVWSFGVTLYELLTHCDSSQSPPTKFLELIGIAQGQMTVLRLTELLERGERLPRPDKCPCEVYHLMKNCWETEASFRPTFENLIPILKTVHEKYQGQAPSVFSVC

For CCn1c(C(=O)N(C2CC2)C2CC2)cc2c3c(ncn3C)c(Nc3cc(C)n(C)n3)nc21 [BMS-911543], which bioavailability [1] is on record?
Its bioavailability is 82%.

What about the Activity [2] of the same compound?
The Activity was “Non-toxic”.

And the IC50 [3]?
Its IC50 is greater than 50000 nM.

And the Activity (MIA PaCa-2)?
The Activity was “inactive”.

And the bioavailability [4]?
Its bioavailability is 53%.

What about the half-life [5] of the same compound?
The half-life was 2.4 h.

What about the half-life [6] of the same compound?
The half-life was 1.8 h.

And the Activity (Salmonella typhimurium)?
The Activity was “Non-toxic”.

And the Activity (MDA-MB-231)?
The Activity was “inactive”.

What about the IC50 [7] of the same compound?
Its IC50 is 66 nM.

And the IC50 (A549)?
Its IC50 is 2400 nM.

What about the IC50 [8] of the same compound?
Its IC50 is greater than 80000 nM.

And the clearance [9]?
The clearance was 6.5 mL/min/kg.

What about the inhibition (Homo sapiens) of the same compound?
Its inhibition is less than 10%.
